Source: patent US10556900B2, “TrkA kinase inhibitors, compositions and methods thereof” (Merck Sharp & Dohme Corp., priority 2015, dated 2020)

What follows are compounds tested against human TrkA receptor (Homo sapiens (Human), UniProt P04629) (assay: TrkA functional activity, DiscoverX PathHunter assay (NGF-stimulated U2OS cells)). Conditions: U2OS cells expressing human TrkA-Prolink, Shc1-EA and p75NTR; compound 1 h, then NGF (~80% of maximal response) 3 h; luminescence.
Assay type: cell-based
Experimental: TrkA functional activity was measured using a DiscoverX PathHunter assay. In this assay, U2OS cells express the human TrkA receptor as a fusion with the weakly complementing fragment of B-galactosidase, which DiscoverX calls “Prolink (PK)”; additionally, Shc1 is fused with a larger fragment, which is called “Enzyme Acceptor (EA)”. Activation of the TrkA receptor, upon NGF addition, results in the kinase domain being phosphorylated, resulting in subsequent recruitment of Shc1-EA protein. That recruitment results in an active B-galactosidase enzyme that is detected by addition of a chemiluminescent substrate. The human p75^NTR protein was also expressed as a co-receptor for NGF.
All reagents were purchased from DiscoverX, except for the receptor agonists (NGF, BDNF, NT3) which were purchased from Peprotech. Cells were expanded and frozen into cryovials, and stored in the vapor phase of liquid nitrogen, and thawed immediately before use. Thawed cells were added to a 384-well plate at 7500 cells/well, and allowed to incubate overnight. Compound at various concentrations was added the following morning and allowed to incubate on cells for 1 h. Then, NGF was added at a concentration sufficient to elicit ˜80% of a maximal response and allowed to incubate for 3 h at ambient temperature. DiscoverX PathHunter detection reagent was then added and the plate was further incubated for 1 h in the dark. The plate was then read via luminescence on the Perkin Elmer Envision.

Chain of human TrkA receptor (P04629 33-796): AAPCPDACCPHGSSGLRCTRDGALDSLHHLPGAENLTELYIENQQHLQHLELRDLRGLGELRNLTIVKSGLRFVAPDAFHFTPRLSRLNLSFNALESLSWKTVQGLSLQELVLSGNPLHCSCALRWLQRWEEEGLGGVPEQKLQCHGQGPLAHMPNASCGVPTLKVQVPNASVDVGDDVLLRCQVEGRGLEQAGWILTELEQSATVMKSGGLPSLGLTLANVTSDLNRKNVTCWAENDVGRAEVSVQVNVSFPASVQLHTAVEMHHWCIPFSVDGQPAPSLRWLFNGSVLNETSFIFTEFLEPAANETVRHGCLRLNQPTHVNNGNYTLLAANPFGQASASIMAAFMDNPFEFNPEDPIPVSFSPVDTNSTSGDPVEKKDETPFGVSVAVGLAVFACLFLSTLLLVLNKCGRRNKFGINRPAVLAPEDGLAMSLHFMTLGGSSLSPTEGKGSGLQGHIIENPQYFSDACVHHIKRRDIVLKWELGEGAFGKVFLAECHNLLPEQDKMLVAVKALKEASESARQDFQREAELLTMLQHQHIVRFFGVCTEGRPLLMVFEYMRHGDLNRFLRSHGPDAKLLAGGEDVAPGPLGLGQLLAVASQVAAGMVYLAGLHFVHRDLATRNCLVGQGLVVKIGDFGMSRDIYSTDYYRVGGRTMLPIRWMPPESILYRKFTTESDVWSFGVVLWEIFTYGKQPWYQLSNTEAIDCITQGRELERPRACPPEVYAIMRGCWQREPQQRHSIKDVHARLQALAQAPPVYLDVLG

Row | SMILES | IC50
1 | Cn1ccc(-c2cc(C(=O)Nc3c(-c4ccccc4)ccn4c(C(N)=O)cnc34)c(F)cc2C(F)(F)F)n1 [Compound 22, 8-({[2-fluoro-5-(1-methyl-1H-pyrazol-3-yl)-4-(trifluoromethyl)phenyl]carbonyl}amino)-7-phenylimidazo[1,2-a]pyridine-3-carboxamide] | 0.51 nM
2 | Cn1ccc(-c2cc(C(=O)Nc3c(-c4ccccc4)ccn4c(CO)cnc34)c(F)cc2C(F)(F)F)n1 [Compound 23, 2-fluoro-N-[3-(hydroxymethyl)-7-phenylimidazo[1,2-a]pyridin-8-yl]-5-(1-methyl-1H-pyrazol-3-yl)-4-(trifluoromethyl)benzamide] | 0.52 nM
3 | O=C(Nc1c(-c2ccccc2)ccn2c(CO)cnc12)c1cc(-c2ccccn2)c(C(F)(F)F)cc1F [Compound 24, 2-fluoro-N-[3-(hydroxymethyl)-7-phenylimidazo[1,2-a]pyridin-8-yl]-5-pyridin-2-yl-4-(trifluoromethyl)benzamide] | 2.5 nM
4 | Cn1ccc(-c2cc(C(=O)Nc3c(-c4ccccc4)ccn4c(C(C)(C)O)cnc34)ccc2C(F)(F)F)n1 [Compound 32, N-[3-(1-hydroxy-1-methylethyl)-7-phenylimidazo[1,2-a]pyridin-8-yl]-3-(1-methyl-1H-pyrazol-3-yl)-4-(trifluoromethyl)benzamide] | 6.2 nM
5 | Cn1ccc(-c2cc(C(=O)Nc3c(-c4ccccc4)ncn4cnnc34)ccc2C(F)(F)F)n1 [Compound 33, 3-(1-methyl-1H-pyrazol-3-yl)-N-(7-phenyl[1,2,4]triazolo[4,3-c]pyrimidin-8-yl)-4-(trifluoromethyl)benzamide] | 6.3 nM
6 | Cn1ccc(-c2cc(C(=O)Nc3c(-c4ccccc4)ccn4ccnc34)ccc2C(F)(F)F)n1 [Compound 34, 3-(1-Methyl-1H-pyrazol-3-yl)-N-(7-phenylimidazo[1,2-a]pyridin-8-yl)-4-(trifluoromethyl)benzamide] | 53 nM
7 | Cn1ccc(-c2cc(C(=O)Nc3c(-c4ccccc4)ccc4c(C(C)(C)O)cnn34)c(F)cc2C(F)(F)F)n1 [Compound 36, 2-Fluoro-N-(3-(2-hydroxypropan-2-yl)-6-phenylpyrazolo[1,5-a]pyridin-7-yl)-5-(1-methyl-1H-pyrazol-3-yl)-4-(trifluoromethyl)benzamide] | 0.4 nM
8 | Cn1ccc(-c2cc(C(=O)Nc3c(-c4ccccc4)ccc4c(C(C)(C)O)cnn34)ccc2C(F)(F)F)n1 [Compound 37, N-[3-(1-hydroxy-1-methylethyl)-6-phenylpyrazolo[1,5-a]pyridin-7-yl]-3-(1-methyl-1H-pyrazol-3-yl)-4-(trifluoromethyl)benzamide] | 4.5 nM
9 | Cn1ccc(-c2cc(C(=O)Nc3c(-c4ccccc4)ccc4c(CO)cnn34)c(F)cc2C(F)(F)F)n1 [Compound 39, 2-fluoro-N-[3-(hydroxymethyl)-6-phenylpyrazolo[1,5-a]pyridin-7-yl]-5-(1-methyl-1H-pyrazol-3-yl)-4-(trifluoromethyl)benzamide] | 0.33 nM
10 | Cn1ccc(-c2cc(C(=O)Nc3c(-c4ccccc4)ccc4c(CO)cnn34)ccc2C(F)(F)F)n1 [Compound 40, N-[3-(hydroxymethyl)-6-phenylpyrazolo[1,5-a]pyridin-7-yl]-3-(1-methyl-1H-pyrazol-3-yl)-4-(trifluoromethyl)benzamide] | 1.4 nM
11 | O=C(Nc1c(-c2ccccc2)ccc2c(CO)cnn12)c1cc(-c2ncccn2)c(C(F)(F)F)cc1F [Compound 41, 2-fluoro-N-[3-(hydroxymethyl)-6-phenylpyrazolo[1,5-a]pyridin-7-yl]-5-pyrimidin-2-yl-4-(trifluoromethyl)benzamide] | 2.1 nM
12 | Cn1ccc(-c2cc(C(=O)Nc3c(-c4ccccc4)ccc4cc(C(C)(C)O)[nH]c34)ccc2C(F)(F)F)n1 [Compound 42, N-(2-(2-Hydroxypropan-2-yl)-6-phenyl-1H-indol-7-yl)-3-(1-methyl-1H-pyrazol-3-yl)-4-(trifluoromethyl)benzamide] | 0.66 nM
13 | CC(=O)c1c[nH]c2c(NC(=O)c3ccc(C(F)(F)F)c(-c4ccn(C)n4)c3)c(-c3ccccc3)ccc12 [Compound 43, N-(3-Acetyl-6-phenyl-1H-indol-7-yl)-3-(1-methyl-1H-pyrazol-3-yl)-4-(trifluoromethyl)benzamide] | 5 nM

Next, values leading:

Row | IC50 | SMILES
14 | 0.94 nM | CC(C)(O)c1cnc2c(NC(=O)c3cc(-c4cc[nH]n4)c(C(F)(F)F)cc3F)c(-c3ccccc3)ccn12 [Compound 31, 2-fluoro-N-[3-(1-hydroxy-1-methylethyl)-7-phenylimidazo[1,2-a]pyridin-8-yl]-5-(1H-pyrazol-3-yl)-4-(trifluoromethyl)benzamide]
15 | 4.4 nM | [2H]C([2H])(O)c1cnc2c(NC(=O)c3cc(-c4ncccn4)c(C(F)(F)F)cc3F)c(-c3ccccc3)ccn12 [Compound 35, 2-Fluoro-N-(3-(hydroxymethyl-d2)-7-phenylimidazo[r 12-a]pyridin-8-yl)-5-(pyrimidin-2-yl)-4-(trifluoromethyl)benzamide]
16 | 1.8 nM | CC(C)(O)c1cnn2c(NC(=O)c3cc(-c4ncccn4)c(C(F)(F)F)cc3F)c(-c3ccccc3)ccc12 [Compound 38, 2-fluoro-N-[3-(1-hydroxy-1-methylethyl)-6-phenylpyrazolo[1,5-a]pyridin-7-yl]-5-pyrimidin-2-yl-4-(trifluoromethyl)benzamide]
17 | 96 nM | CC(C)(O)c1cc2cc(-c3ccccc3)c(NC(=O)c3cc(-c4ncccn4)c(C(F)(F)F)cc3F)cc2[nH]1 [Compound 44, 2-Fluoro-N-(2-(2-hydroxypropan-2-yl)-5-phenyl-1H-indol-6-yl)-5-(pyrimidin-2-yl)-4-(trifluoromethyl)benzamide]
18 | 4.3 nM | CC(C)(O)c1n[nH]c2c(NC(=O)c3cc(-c4ncccn4)c(C(F)(F)F)cc3F)c(-c3ccccc3)ccc12 [Compound 45, 2-Fluoro-N-(3-(2-hydroxypropan-2-yl)-6-phenyl-1H-indazol-7-yl)-5-(pyrimidin-2-yl)-4-(trifluoromethyl)benzamide]
19 | 28 nM | NC(=O)Cc1cnc2c(NC(=O)c3cc(-c4ncccn4)c(C(F)(F)F)cc3F)c(-c3ccccc3)ccn12 [Compound 50, N-(3-(2-Amino-2-oxoethyl)-7-phenylimidazo[1,2-a]pyridin-8-yl)-2-fluoro-5-(pyrimidin-2-yl)-4-(trifluoromethyl)benzamide]
20 | 60 nM | O=C(Nc1c(-c2ccc(F)cc2)ccn2c(CO)cnc12)c1cc(-c2ncccn2)c(C(F)(F)F)cc1F [Compound 51, 2-Fluoro-N-(7-(4-fluorophenyl)-3-(hydroxymethyl)imidazo[1,2-a]pyridin-8-yl)-5-(pyrimidin-2-yl)-4-(trifluoromethyl)benzamide]
21 | 58 nM | CC(C)(O)c1cnc2c(NC(=O)c3cc(-c4ncccn4)c(C(F)(F)F)cc3F)c(-c3ccc(F)cc3)ccn12 [Compound 54, 2-fluoro-N-[7-(4-fluorophenyl)-3-(1-hydroxy-1-methylethyl)imidazo[1,2-a]pyridin-8-yl]-5-pyrimidin-2-yl-4-(trifluoromethyl)benzamide]
22 | 82 nM | Cc1ccccc1-c1ccn2c(C(C)(C)O)cnc2c1NC(=O)c1cc(-c2ncccn2)c(C(F)(F)F)cc1F [Compound 55, 2-Fluoro-N-(3-(2-hydroxypropan-2-yl)-7-(o-tolyl)imidazo[1,2-a]pyridin-8-yl)-5-(pyrimidin-2-yl)-4-(trifluoromethyl)benzamide]
